One assay relates to Human recombinant CDC25. Put plainly: PTP activity assay (pNPP), CDC25. The note with it: triplicate. The assay is classed as biochemical. The source says:
(§1) Human recombinant PTP-MEG2, SHP2 and CDC25 were expressed in E. coli and purified by Ni-NTA affinity chromatography in our laboratory. The basic chemical reaction catalyzed by a phosphatase converts a phosphosubstrate into a dephosphorylated product and free phosphate which could be measured as a surrogate for phosphatase activity. pNPP(para-nitrophenyl phosphate) was used as phosphatase substrate which can be hydrolyzed by phosphatase to give para-nitrophenol. Subsequently, para-nitrophenol converts into para-nitrophenolate (pNP) with addition of sodium hydroxide stop solution. pNP is an intense yellow compound and could be measured at 405 nm using a spectrophotometer. To begin with, purified recombinant PTP-MEG2, SHP2 and CDC25 (0.05 μg) in 50 μL buffer with 50 mM citrate (pH 6.0), 0.1 M NaCl, 1 mM EDTA, and 1 mM dithiothreitol (DTT) and test compounds were added to each well of a 96-well plate. Blank was prepared by omitting enzyme and substituting an equivalent volume of buffer. After preincubation for 15 min at room temperature, 50 μL of reaction buffer with 2 mM pNPP was added and incubated at 37°C for 30 min. Then, the reaction was stopped by adding 10 μL 0.2 M sodium hydroxide and chilled on ice quickly. In addition, the amount of pNP was measured by detecting the absorption at 405 nm against blank. Finally, IC50 values were determined by analyzing the data using ORIGINPRO 8 software.

For the next assay, the target named is T1, Human recombinant SHP2 (Homo sapiens, UniProt Q06124).
T1 construct: made in house; host or cells: E. coli
T1 sequence (Q06124 1-593): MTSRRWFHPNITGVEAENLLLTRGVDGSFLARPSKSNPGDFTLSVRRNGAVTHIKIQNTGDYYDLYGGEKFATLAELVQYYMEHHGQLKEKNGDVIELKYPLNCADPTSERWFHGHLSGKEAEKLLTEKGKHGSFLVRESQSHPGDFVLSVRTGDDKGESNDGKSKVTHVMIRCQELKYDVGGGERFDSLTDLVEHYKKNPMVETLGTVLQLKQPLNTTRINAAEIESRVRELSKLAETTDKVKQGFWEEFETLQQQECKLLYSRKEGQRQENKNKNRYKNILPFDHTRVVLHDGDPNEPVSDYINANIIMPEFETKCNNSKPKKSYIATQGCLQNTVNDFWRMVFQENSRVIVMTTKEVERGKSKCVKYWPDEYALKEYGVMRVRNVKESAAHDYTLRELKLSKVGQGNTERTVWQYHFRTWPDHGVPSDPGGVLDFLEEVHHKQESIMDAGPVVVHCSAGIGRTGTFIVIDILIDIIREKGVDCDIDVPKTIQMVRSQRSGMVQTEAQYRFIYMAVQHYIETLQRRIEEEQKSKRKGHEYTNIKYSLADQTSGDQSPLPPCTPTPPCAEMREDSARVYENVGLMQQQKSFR
Put plainly: PTP activity assay (pNPP), SHP2. Type of assay: biochemical. The note with it: triplicate; read-out: SHP-2 IC50.
From the text: as §1

Assay [1] concerns the target T2, Human recombinant PTP-MEG2 (Homo sapiens, UniProt P43378).
T2 construct: made in house; host or cells: E. coli
T2 sequence (P43378 1-593): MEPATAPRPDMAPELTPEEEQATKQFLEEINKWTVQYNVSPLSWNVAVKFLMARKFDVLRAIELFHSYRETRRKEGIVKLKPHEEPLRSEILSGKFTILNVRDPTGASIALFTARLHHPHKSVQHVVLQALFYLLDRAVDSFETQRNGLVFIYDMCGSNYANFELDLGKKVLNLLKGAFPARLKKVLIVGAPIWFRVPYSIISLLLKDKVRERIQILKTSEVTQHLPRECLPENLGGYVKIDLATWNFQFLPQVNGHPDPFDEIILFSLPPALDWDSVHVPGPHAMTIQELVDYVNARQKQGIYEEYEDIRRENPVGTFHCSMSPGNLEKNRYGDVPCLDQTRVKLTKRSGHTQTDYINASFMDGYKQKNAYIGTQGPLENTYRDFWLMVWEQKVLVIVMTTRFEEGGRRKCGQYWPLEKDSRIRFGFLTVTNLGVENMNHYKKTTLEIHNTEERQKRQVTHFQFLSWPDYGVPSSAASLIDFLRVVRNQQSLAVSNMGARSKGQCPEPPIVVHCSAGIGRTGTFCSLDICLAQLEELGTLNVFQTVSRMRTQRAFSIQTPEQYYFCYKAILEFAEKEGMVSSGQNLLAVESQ
Kind of assay: PTP activity assay (pNPP), PTP-MEG2. Type of assay: biochemical. The note with it: triplicate, mean ± S.E.M.
From the text: as §1

The test system of another assay is diet-induced obese mice. The note with it: ref [20]; cited from earlier work.

For orientation: IC50 means the concentration at which inhibition is half-maximal.

Some results are limits rather than exact numbers.

With `CCOC(=O)c1cc(OC(C)=O)c2c(c1)oc1cc(F)c(C(C)C)cc12` [Compound 8, ethyl 1-acetoxy-7-fluoro-8-isopropyldibenzo[b, d]furan-3-carboxylate], the IC50 is more than 50 µM in the assay with Human recombinant CDC25, more than 50 µM at Human recombinant SHP2 and 3.7 ± 0.22 µM in assay [1].
With `COC(=O)c1cc(O)c2c(c1)oc1cc(F)c(C(C)C)cc12` [Compound 9a, methyl 7-fluoro-1-hydroxy-8-isopropyldibenzo[b, d]furan-3-carboxylate], the IC50 is more than 50 µM in the assay on Human recombinant CDC25, more than 50 µM at Human recombinant SHP2 and 5 ± 0.4 µM in assay [1].
As to `CCOC(=O)c1cc(OCC2CC2)c2c(c1)oc1cc(F)c(C(C)C)cc12` [Compound 10a, ethyl 1-(cyclopropylmethoxy)-7-fluoro-8-isopropyldibenzo[b, d]furan-3-carboxylate], the IC50 is more than 50 µM with Human recombinant CDC25, more than 50 µM at Human recombinant SHP2 and 0.32 ± 0.02 µM in assay [1].
Take `CCCCCCOc1cc(C(=O)OCC)cc2oc3cc(F)c(C(C)C)cc3c12` [Compound 10b, ethyl 7-fluoro-1-(hexyloxy)-8-isopropyldibenzo[b, d]furan-3-carboxylate]: the figures for the IC50 (in the assay on Human recombinant CDC25; on Human recombinant SHP2; in assay [1]) were more than 50 µM, more than 50 µM and 1.22 ± 0.11 µM, respectively.
`CCOC(=O)c1cc(OCC2CCCCC2)c2c(c1)oc1cc(F)c(C(C)C)cc12` [Compound 10c, ethyl 1-(cyclohexylmethoxy)-7-fluoro-8-isopropyldibenzo[b, d]furan-3-carboxylate]: the IC50 in the assay on Human recombinant CDC25 is more than 50 µM; at Human recombinant SHP2, more than 50 µM; in assay [1], 1.19 ± 0.08 µM.
Consider `CCOC(=O)c1cc(OCc2ccc(OC)cc2)c2c(c1)oc1cc(F)c(C(C)C)cc12` [Compound 10d, ethyl7-fluoro-8-isopropyl-1-((4-methoxybenzyl)oxy)dibenzo[b, d]furan-3-carboxylate], for which the results for the IC50 (with Human recombinant CDC25; on Human recombinant SHP2; in assay [1]) were more than 50 µM, more than 50 µM and 3.39 ± 0.34 µM, respectively.
As to `CCCCCCOc1cc(C(=O)OCC2CC2)cc2oc3cc(F)c(C(C)C)cc3c12` [Compound 11a, cyclopropylmethyl7-fluoro-1-(hexyloxy)-8-isopropyldibenzo[b, d]furan-3-carboxylate], the values for the IC50 (in the assay on Human recombinant CDC25; on Human recombinant SHP2; in assay [1]) were more than 50 µM, more than 50 µM and 2.41 ± 0.17 µM, respectively.
For `COc1ccc(COc2cc(C(=O)OCC3CC3)cc3oc4cc(F)c(C(C)C)cc4c23)cc1` [Compound 11b, cyclopropylmethyl7-fluoro-8-isopropyl-1-((4-methoxybenzyl)oxy)dibenzo[b, d]furan-3-carboxylate], the IC50 in the assay on Human recombinant CDC25 was more than 50 µM; on Human recombinant SHP2, more than 50 µM; in assay [1], 1.06 ± 0.1 µM.
Turning to `CCCCCCOc1cc(C(=O)OCC2CCCCC2)cc2oc3cc(F)c(C(C)C)cc3c12` [Compound 11c, cyclohexylmethyl7-fluoro-1-(hexyloxy)-8-isopropyldibenzo[b, d]furan-3-carboxylate], the IC50 with Human recombinant CDC25 was more than 50 µM; at Human recombinant SHP2, more than 50 µM; in assay [1], 3.16 ± 0.32 µM.
For the compound `COc1ccc(COc2cc(C(=O)OCC3CCCCC3)cc3oc4cc(F)c(C(C)C)cc4c23)cc1` [Compound 11d, cyclohexylmethyl7-fluoro-8-isopropyl-1-((4-methoxybenzyl)oxy)dibenzo[b, d]furan-3-carboxylate], the IC50 was more than 50 µM in the assay with Human recombinant CDC25, more than 50 µM on Human recombinant SHP2 and 0.83 ± 0.04 µM in assay [1].
Regarding `CC(C)c1cc2c(cc1F)oc1cc(C(=O)O)cc(OCC3CC3)c12` [Compound 11e, 1-(cyclopropylmethoxy)-7-fluoro-8-isopropyldibenzo[b, d]furan-3-carboxylic acid], the IC50 in the assay on Human recombinant CDC25 is more than 50 µM; on Human recombinant SHP2, more than 50 µM; in assay [1], 5.35 ± 0.43 µM.
For `CCOC(=O)/C(=C/C#Cc1cc(C(C)C)c(F)cc1OC)CC(=O)O` [compound7], the “effect on insulin signaling, insulin sensitivity and glucose homeostasis” value with diet-induced obese mice was “augment insulin signaling and enhance the insulin sensitivity and glucose homeostasis”.

Values taken from paper PMC5503546, “Synthesis, bioactivity, 3D-QSAR studies of novel dibenzofuran derivatives as PTP-MEG2 inhibitors” (Oncotarget, 2017).
